Experiments:
[1] = target: T1, cGMP-specific 3',5'-cyclic phosphodiesterase (Homo sapiens, UniProt O76074); assay: Inhibitory activity against Phosphodiesterase 5 (PDE5) was evaluated
[2] = Selective inhibition of PDE5 versus PDE6 in retinal cone
[3] = Selective inhibition of PDE5 versus PDE6 in retinal rod
Canis familiaris [4] = organism: Canis familiaris; assay: Effective dose in dogs; assay type: functional; details: Canis lupus familiaris
Canis familiaris [5] = organism: Canis familiaris; assay: Dose required for potentiated ICP increase in dogs; assay type: functional, Canis lupus familiaris
[6] = target: T1, cGMP-specific 3',5'-cyclic phosphodiesterase; assay: Inhibition of PDE5

Structure (SMILES) | Ki [1] | further results
O=C(c1cc2ccc(O)cc2o1)N1Cc2c(nc3ccccc3c2O)C1c1ccc2c(c1)CCO2 (stereo not drawn) | 1.74 nM | Ratio [2]: 646; Ratio [3]: 291
O=C(c1ccc(-c2cccc(C(F)(F)F)c2)o1)N1Cc2c(nc3ccccc3c2O)C1c1ccc2c(c1)OCO2 (stereo not drawn) | 0.98 nM | 
O=C(c1ccc(-c2cccc([N+](=O)[O-])c2)o1)N1Cc2c(nc3ccccc3c2O)C1c1ccc2c(c1)OCO2 (stereo not drawn) | 1.3 nM | 
O=C(c1ccccc1)N1Cc2c(nc3ccccc3c2O)C1c1ccc2c(c1)OCO2 (stereo not drawn) | 2.49 nM | 
O=C(c1ccc(-c2ccco2)o1)N1Cc2c(nc3ccccc3c2O)C1c1ccc2c(c1)OCO2 (stereo not drawn) | 4.66 nM | 
O=C(c1ccc(-c2cccnc2)o1)N1Cc2c(nc3ccccc3c2O)C1c1ccc2c(c1)CCO2 (stereo not drawn) | 0.53 nM | 
CN1CCN(C(=O)c2ccc(-c3ccc(C(=O)N4Cc5c(nc6ccccc6c5O)C4c4ccc5c(c4)OCO5)o3)cc2)CC1 (single isomer, unassigned; (-)) [listing 1 of 2 here] |  | Ratio [2]: 13.2; Ratio [3]: 13
COC(=O)c1ccc(-c2ccc(C(=O)N3Cc4c(nc5ccccc5c4O)C3c3ccc4c(c3)OCO4)o2)cc1 (stereo not drawn) | 0.99 nM | 
CN1CCN(C(=O)c2ccc(-c3ccc(C(=O)N4Cc5c(nc6ccccc6c5O)C4c4ccc5c(c4)OCO5)o3)cc2)CC1 (single isomer, unassigned; (-)) [listing 2 of 2 here] | 0.2 nM | 
O=C(c1cc2ccc(O)cc2o1)N1Cc2c(nc3ccccc3c2O)C1c1ccc2c(c1)OCO2 (stereo not drawn) | 0.35 nM | Ratio [2]: 29; Ratio [3]: 31
CS(=O)(=O)Nc1ccc(-c2ccc(C(=O)N3Cc4c(nc5ccccc5c4O)C3c3ccc4c(c3)OCO4)o2)cc1 (stereo not drawn) | 0.24 nM | ED50 (Canis familiaris [4]): 0.284 mg/kg; Dose (Canis familiaris [5]): 0.3 mg/kg
CN1CCN(C(=O)c2ccc(-c3ccc(C(=O)N4Cc5c(nc6ccccc6c5O)C4c4ccc5c(c4)OCO5)o3)cc2)CC1 (racemic) [listing 1 of 2 here] | 1.82 nM | 
O=C(c1ccc(-c2ccc(OCCN3CCCC3)cc2)o1)N1Cc2c(nc3ccccc3c2O)C1c1ccc2c(c1)OCO2 (stereo not drawn) | 0.76 nM | 
O=Cc1ccc(-c2ccc(C(=O)N3Cc4c(nc5ccccc5c4O)C3c3ccc4c(c3)OCO4)o2)cc1 (stereo not drawn) |  | Ki [6]: 2.59 nM
CN1CCN(C(=O)c2ccc(-c3ccc(C(=O)N4Cc5c(nc6ccccc6c5O)C4c4ccc5c(c4)OCO5)o3)cc2)CC1 (racemic) [listing 2 of 2 here] |  | Ratio [2]: 2; Ratio [3]: 2
O=C(c1ccc(Br)o1)N1Cc2c(nc3ccccc3c2O)C1c1ccc2c(c1)OCO2 (stereo not drawn) | 2.07 nM | 
CN1CCN(C(=O)c2ccc(-c3ccc(C(=O)N4Cc5c(nc6ccccc6c5O)C4c4ccc5c(c4)CCO5)o3)cc2)CC1 (stereo not drawn) |  | Ratio [2]: 12; Ratio [3]: 13

Further lines, with some results ahead:

Ki [1] | Structure (SMILES) | further results
0.47 nM | O=C(c1ccc(-c2cccc(CO)c2)o1)N1Cc2c(nc3ccccc3c2O)C1c1ccc2c(c1)OCO2 (stereo not drawn) | 
0.61 nM | O=C(c1ccc(-c2ccc([N+](=O)[O-])cc2)o1)N1Cc2c(nc3ccccc3c2O)C1c1ccc2c(c1)OCO2 (stereo not drawn) | 
3.74 nM | CN(C)c1ccc(-c2ccc(C(=O)N3Cc4c(nc5ccccc5c4O)C3c3ccc4c(c3)OCO4)o2)cc1 (stereo not drawn) | 
1.71 nM | COc1ccc(-c2ccc(C(=O)N3Cc4c(nc5ccccc5c4O)C3c3ccc4c(c3)OCO4)o2)cc1 (stereo not drawn) | 
0.73 nM | O=C(c1ccc(-c2ccc(O)cc2)o1)N1Cc2c(nc3ccccc3c2O)C1c1ccc2c(c1)OCO2 (stereo not drawn) | 
0.31 nM | O=C(c1ccc(-c2ccncc2)o1)N1Cc2c(nc3ccccc3c2O)C1c1ccc2c(c1)OCO2 (stereo not drawn) | Ratio [2]: 34; Ratio [3]: 23
0.61 nM | O=C(c1ccc(-c2ccc(CO)cc2)o1)N1Cc2c(nc3ccccc3c2O)C1c1ccc2c(c1)OCO2 (stereo not drawn) | 
2.09 nM | O=C(c1ccc(-c2ccccc2)o1)N1Cc2c(nc3ccccc3c2O)C1c1ccc2c(c1)OCO2 (stereo not drawn) | 
1.01 nM | O=C(O)c1ccc(-c2ccc(C(=O)N3Cc4c(nc5ccccc5c4O)C3c3ccc4c(c3)OCO4)o2)cc1 (stereo not drawn) | 
2.71 nM | N#Cc1ccc(-c2ccc(C(=O)N3Cc4c(nc5ccccc5c4O)C3c3ccc4c(c3)OCO4)o2)cc1 (stereo not drawn) | 
2.64 nM | Cc1ccc(-c2ccc(C(=O)N3Cc4c(nc5ccccc5c4O)C3c3ccc4c(c3)OCO4)o2)cc1 (stereo not drawn) | 
0.15 nM | O=C(c1ccc(-c2cccnc2)o1)N1Cc2c(nc3ccccc3c2O)C1c1ccc2c(c1)OCO2 (stereo not drawn) | Ratio [2]: 108; Ratio [3]: 144
0.71 nM | O=C(c1ccc(-c2ccsc2)o1)N1Cc2c(nc3ccccc3c2O)C1c1ccc2c(c1)OCO2 (stereo not drawn) | 

From ChEMBL document CHEMBL1145958, “Furoyl and benzofuroyl pyrroloquinolones as potent and selective PDE5 inhibitors for treatment of erectile dysfunction” (J Med Chem, 2003)
